In patent publication US20250270227A1, “CAMPTOTHECIN DERIVATIVE, AND PHARMACEUTICAL COMPOSITION AND USE THEREOF” (SIMCERE ZAIMING PHARMACEUTICAL CO., LTD., priority 2021, published 2025):
Where two headings read alike, the source gives them in different places.

Columns and labels:
Assay in all cases: Test 1 of anti-proliferative activity against tumor cells (Cell-Titer Glo)
Assay type in all cases: cell-based
[1] = system: human breast cancer cell line SKBR3
Procedure: (§1) Cell culture: HCT116 cells and SKBR3 cells were cultured in McCoy's 5a medium containing 10% fetal bovine serum+1% penicillin-streptomycin at 37° C. and 5% CO2, and OVCAR3 cells were cultured in 1640 medium containing 20% fetal bovine serum+2 μg/mL bovine insulin+1% penicillin-streptomycin at 37° C. and 5% CO2. Cells in logarithmic growth phase were suitable for the experiment.
(§2) Detection of cell proliferation activity: The inhibitory activity of the compounds on the proliferation of the three cell lines HCT116, SKBR3 and OVCAR3 was detected using Cell-Titer Glo reagent. HCT116 cells (1500 cells per well), SKBR3 cells (3000 cells per well) and OVCAR3 cells (5000 cells per well) were seeded in 96-well plates and cultured at 37° C. and 5% CO2 for 24 h. The solution of the compound to be tested (the compound was dissolved in DMSO with the concentration of the compound being 1 mM, then the compound was diluted to 3 μM with DMSO, with 3-fold dilution and a total of 9 concentrations, and 10 μL of the prepared compound solution was transferred to a 96-well plate with the final concentration of 0-300 nM) was added. The cells were placed at 37° C. and 5% CO2 for further culture. HCT116 cells were cultured for 3 days, and SKBR3 cells and OVCAR3 cells were cultured for 5 days. The cell viability was detected by adding Cell-Titer Glo reagent.
(§3) Additionally, a negative control group and a positive control group were provided as Bottom and Top, respectively. In the negative control group, the cells were not added, only the same volume of medium was added, and other operations were consistent with those in the experimental group; in the positive control group, the test compound was not added, only the same volume of DMSO was added, and other operations were consistent with those in the experimental group.
(§4) Data analysis: The % compound inhibition was calculated, and fitting was performed to obtain IC50 of the compound.
(§5) % Compound inhibition=1−100%*(Signal−Bottom)/(Top−Bottom).
(§6) Signal represents the signal value of the experimental group, Bottom represents the average signal value of the negative control group, and Top represents the average signal value of the positive control group.

[2] = system: human ovarian cancer cell line OVCAR3
Procedure: as §1, §2, §3, §4, §5, §6

[3] = system: Human colorectal cancer cell line HCT116
Procedure: as §1, §2, §3, §4, §5, §6

[4] = Homo sapiens, SK-BR-3, 120 h, read-out: SKBR3 Anti-proliferative activity IC50 (nM), SKBR3 cells, cultured 5 days with compound, Cell-Titer Glo
[5] = Homo sapiens, OVCAR-3, 120 h, read-out: OVCAR3 Anti-proliferative activity IC50 (nM)
[6] = Homo sapiens, HCT-116, 72 h, read-out: HCT116 Anti-proliferative activity IC50 (nM), HCT116 cells, cultured 3 days with compound, Cell-Titer Glo

Row | Structure (SMILES) | IC50 [1, 4] [nM] | IC50 [2, 5] [nM] | IC50 [3, 6] [nM] | further results
1 | CC[C@@]1(O)C(=O)OCc2c1cc1n(c2=O)Cc2c-1nc1cc(F)c(Cl)c(F)c1c2CNC(=O)C(O)C1CC1 (single isomer, unassigned) [Compound 23-P2] |  |  |  | IC50 ([1]; SKBR3 cells, cultured 5 days with compound, Cell-Titer Glo, read-out: SKBR3 Anti-proliferative activity IC50): 4.5 nM; IC50 ([2]; OVCAR3 cells, cultured 5 days with compound, Cell-Titer Glo, read-out: OVCAR3 Anti-proliferative activity IC50): 1.5 nM; IC50 ([3]; HCT116 cells, cultured 3 days with compound, Cell-Titer Glo, read-out: HCT116 Anti-proliferative activity IC50): 9.5 nM
2 | CC[C@@]1(O)C(=O)OCc2c1cc1n(c2=O)Cc2c-1nc1cc(Cl)c(C)cc1c2CNC(=O)CO [Compound 6, (S)-N-((8-chloro-4-ethyl-4-hydroxy-9-methyl-3,14-dioxo-3,4, 12,14-tetrahydro-1H-pyrano[3′,4′:6,7]indolizino[1,2-b]quinolin-11-yl)methyl)-2-hydroxyacetamide] | 4.8 | 2.1 | 12.6 | 
3 | CC[C@@]1(O)C(=O)OCc2c1cc1n(c2=O)Cc2c-1nc1ccc3c(c1c2CNC(=O)C(O)C1CC1)CCC3 (stereo partly drawn) [Compound 13, 2-cyclopropyl-N-(((S)-8-ethyl-8-hydroxy-9,12-dioxo-2,3,8,9, 12,14-hexahydro-1H,11H-cyclopentadieno[f]pyrano[3′,4′:6,7]indolizino [1,2-b]quinolin-15-yl)methyl)-2-hydroxyacetamide] |  | 0.7 | 8 | 
4 | CC[C@@]1(O)C(=O)OCc2c1cc1n(c2=O)Cc2c-1nc1cc(F)c(Cl)c(F)c1c2CNC(=O)CO [Compound 21, (S)-N-((9-chloro-4-ethyl-8,10-difluoro-4-hydroxy-3,14-dioxo-3,4,12,14-tetrahydro-1H-pyrano[3′,4′:6,7]indolizino[1,2-b]quinolin-11-yl)methyl)-2-hydroxyacetamide] | 4 | 1.7 | 7.1 | 
5 | CC[C@@]1(O)C(=O)OCc2c1cc1n(c2=O)Cc2c-1nc1cc(F)c(Cl)c(F)c1c2CNC(=O)C(C)(C)O [Compound 22, (S)-N-((9-chloro-4-ethyl-8,10-difluoro-4-hydroxy-3,14-dioxo-3,4,12,14-tetrahydro-1H-pyrano[3′,4′:6,7]indolizino[1,2-b]quinolin-11-yl)methyl)-2-hydroxy-2-methylpropanamide] | 3.5 | 1.4 | 4 | 
6 | CC[C@@]1(O)C(=O)OCc2c1cc1n(c2=O)Cc2c-1nc1cc(F)c(Cl)c(F)c1c2CNC(=O)C(O)C1CC1 (stereo partly drawn) [Compound 23, N-(((S)-9-chloro-4-ethyl-8,10-difluoro-4-hydroxy-3,14-dioxo-3,4,12,14-tetrahydro-1H-pyrano[3′,4′:6,7]indolizino[1,2-b]quinolin-11-yl)methyl)-2-cyclopropyl-2-hydroxyacetamide] |  | 3.9 |  | IC50 ([1]; read-out: SKBR3 Anti-proliferative activity IC50, SKBR3 cells, cultured 5 days with compound, Cell-Titer Glo): 5.3 nM; IC50 ([3]; read-out: HCT116 Anti-proliferative activity IC50, HCT116 cells, cultured 3 days with compound, Cell-Titer Glo): 5.6 nM
7 | CC[C@@]1(O)C(=O)OCc2c1cc1n(c2=O)Cc2c-1nc1cc(F)c(Cl)c(F)c1c2CNC(=O)C(O)C1CC1 (stereo partly drawn) [Compound 23-P1, N-(((S)-9-chloro-4-ethyl-8,10-difluoro-4-hydroxy-3,14-dioxo-3,4,12,14-tetrahydro-1H-pyrano[3′,4′:6,7]indolizino[1,2-b]quinolin-11-yl)methyl)-2-cyclopropyl-2-hydroxyacetamide] |  |  |  | IC50 ([1]; Homo sapiens, SK-BR-3, 120 h, SKBR3 cells, cultured 5 days with compound, Cell-Titer Glo, read-out: SKBR3 Anti-proliferative activity IC50): 5.8 nM; IC50 ([2]; Homo sapiens, OVCAR-3, 120 h, OVCAR3 cells, cultured 5 days with compound, Cell-Titer Glo, read-out: OVCAR3 Anti-proliferative activity IC50): 1.9 nM; IC50 ([3]; Homo sapiens, HCT-116, 72 h, HCT116 cells, cultured 3 days with compound, Cell-Titer Glo, read-out: HCT116 Anti-proliferative activity IC50): 7.9 nM
8 | CC[C@@]1(O)C(=O)OCc2c1cc1n(c2=O)Cc2c-1nc1cc(F)c(Cl)c(F)c1c2CNC(=O)[C@@H](C)O [Compound 25, (R)-N-(((S)-9-chloro-4-ethyl-8,10-difluoro-4-hydroxy-3,14-dioxo-3,4,12,14-tetrahydro-1H-pyrano[3′,4′:6,7]indolizino[1,2-b]quinolin-11-yl)methyl)-2-hydroxypropanamide] | 3.7 | 2 | 7.9 | 
9 | CC[C@@]1(O)C(=O)OCc2c1cc1n(c2=O)Cc2c-1nc1cc(F)c(Cl)c(F)c1c2CNC(=O)[C@H](C)O [Compound 26, (S)-N-(((S)-9-chloro-4-ethyl-8,10-difluoro-4-hydroxy-3,14-dioxo-3,4,12,14-tetrahydro-1H-pyrano[3′,4′:6,7]indolizino[1,2-b]quinolin-11-yl)methyl)-2-hydroxypropanamide] | 4.2 | 1.6 | 9.5 | 
10 | CC[C@@]1(O)C(=O)OCc2c1cc1n(c2=O)Cc2c-1nc1cc3c(c(Cl)c1c2CNC(=O)C(O)C1CC1)OCO3 (stereo partly drawn) [Compound 30, N-(((S)-15-chloro-7-ethyl-7-hydroxy-8,11-dioxo-7,8,11,13-tetrahydro-10H-[1,3]dioxolo[4,5-g]pyrano[3′,4′:6,7]indolizino[1,2-b]quinolin-14-yl)methyl)-2-cyclopropyl-2-hydroxyacetamide] |  | 0.4 | 4.6 | 
11 | CC[C@@]1(O)C(=O)OCc2c1cc1n(c2=O)Cc2c-1nc1cc(F)c(Cl)c(F)c1c2CNC(=O)CCO [Compound 32, (S)-N-((9-chloro-4-ethyl-8,10-difluoro-4-hydroxy-3,14-dioxo-3,4,12,14-tetrahydro-1H-pyrano[3′,4′:6,7]indolizino[1,2-b]quinolin-11-yl)methyl)-3-hydroxypropanamide] |  | 1 | 9.8 | 
12 | CC[C@@]1(O)C(=O)OCc2c1cc1n(c2=O)Cc2c-1nc1cc(Cl)c3c(c1c2CNC(=O)CO)CCC3 [Compound 33, (S)-N-((4-chloro-8-ethyl-8-hydroxy-9,12-dioxo-2,3,8,9,12,14-hexahydro-1H,11H-cyclopentadieno[f]pyrano[3′,4′:6,7]indolizino[1,2-b]quinolin-15-yl)methyl)-2-hydroxyacetamide] |  | 0.8 | 5.5 | 
13 | CC[C@@]1(O)C(=O)OCc2c1cc1n(c2=O)Cc2c-1nc1cc(Cl)c3c(c1c2CNC(=O)C(O)C1CC1)CCC3 (stereo partly drawn) [Compound 34, N-(((S)-4-chloro-8-ethyl-8-hydroxy-9,12-dioxo-2,3,8,9,12,14-hexahydro-1H,11H-cyclopentadieno[f]pyrano[3′,4′:6,7]indolizino[1,2-b]quinolin-15-yl)methyl)-2-cyclopropyl-2-hydroxyacetamide] |  | 0.6 | 2.3 | 
14 | CC[C@@]1(O)C(=O)OCc2c1cc1n(c2=O)Cc2c-1nc1cc3c(c(F)c1c2CNC(=O)CO)OCO3 [Compound 38, (S)-N-((7-ethyl-15-fluoro-7-hydroxy-8,11-dioxo-7,8,11,13-tetrahydro-10H-[1,3]dioxolo[4,5-g]pyrano[3′,4′:6,7]indolizino[1,2-b]quinolin-14-yl)methyl)-2-hydroxyacetamide] |  | 2.9 |  | 
15 | CC[C@@]1(O)C(=O)OCc2c1cc1n(c2=O)Cc2c-1nc1cc3c(c(F)c1c2CNC(=O)CN)OCO3 [Compound 40, (S)-2-amino-N-((7-ethyl-15-fluoro-7-hydroxy-8,11-dioxo-7,8,11,13-tetrahydro-10H-[1,3]dioxolo[4,5-g]pyrano[3′,4′:6,7]indolizino[1,2-b]quinolin-14-yl)methyl)acetamide] |  | 11.3 |  | 
